Source: patent US9290474B2, “Methods for making and using novel semi-synthetic small molecules for the treatment parasitic disease” (The Regents of the University of California, priority 2011, dated 2016)

System: T. brucei brucei
Experiment: Screening against T. brucei (antiparasitic activity)
Type: cell-based, Trypanosoma brucei
Details: initial screening

`CC1(C)C=CC(=O)[C@@]2(C)OOC3C[C@]12CCC3(O)CO` (stereo partly shown) [Merulin C, merulin C] was tested, and the “activity against T. brucei brucei” value was 0.8 µM.
